Results reported in patent US20130102595A1 (Curis, Inc., priority 2011, published 2013).

Assays:
[1] = tested on: HDACs (HeLa cell nuclear extracts); assay: HDAC enzymatic activity, Biomol Color de Lys system; assay type: biochemical; details: 1 hour, 25° C.
Outline: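 HeLa nuclear extract incubated with serially diluted compound and […] artificial substrate in 50 mM Tris/Cl pH 8.0, 137 mM NaCl, 2.7 mM KCl, 1 mM MgCl2. Run 1 h at 25 °C, stopped with developer. Fluorescence read (ex 350-380, em 440-460 nm); IC50 from sigmoidal dose-response fit.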

[2] = target: T1, PI3Kα (p110α/p85α) (Homo sapiens, UniProt P42336); assay: PI3Kα ADP-Glo assay; assay type: biochemical; details: 20 μM PIP2, 10 μM ATP, 30 minutes
T1 construct: GST (N); made in house; host or cells: Baculovirus-infected Sf9 cells
T1 sequence (P42336 whole entry): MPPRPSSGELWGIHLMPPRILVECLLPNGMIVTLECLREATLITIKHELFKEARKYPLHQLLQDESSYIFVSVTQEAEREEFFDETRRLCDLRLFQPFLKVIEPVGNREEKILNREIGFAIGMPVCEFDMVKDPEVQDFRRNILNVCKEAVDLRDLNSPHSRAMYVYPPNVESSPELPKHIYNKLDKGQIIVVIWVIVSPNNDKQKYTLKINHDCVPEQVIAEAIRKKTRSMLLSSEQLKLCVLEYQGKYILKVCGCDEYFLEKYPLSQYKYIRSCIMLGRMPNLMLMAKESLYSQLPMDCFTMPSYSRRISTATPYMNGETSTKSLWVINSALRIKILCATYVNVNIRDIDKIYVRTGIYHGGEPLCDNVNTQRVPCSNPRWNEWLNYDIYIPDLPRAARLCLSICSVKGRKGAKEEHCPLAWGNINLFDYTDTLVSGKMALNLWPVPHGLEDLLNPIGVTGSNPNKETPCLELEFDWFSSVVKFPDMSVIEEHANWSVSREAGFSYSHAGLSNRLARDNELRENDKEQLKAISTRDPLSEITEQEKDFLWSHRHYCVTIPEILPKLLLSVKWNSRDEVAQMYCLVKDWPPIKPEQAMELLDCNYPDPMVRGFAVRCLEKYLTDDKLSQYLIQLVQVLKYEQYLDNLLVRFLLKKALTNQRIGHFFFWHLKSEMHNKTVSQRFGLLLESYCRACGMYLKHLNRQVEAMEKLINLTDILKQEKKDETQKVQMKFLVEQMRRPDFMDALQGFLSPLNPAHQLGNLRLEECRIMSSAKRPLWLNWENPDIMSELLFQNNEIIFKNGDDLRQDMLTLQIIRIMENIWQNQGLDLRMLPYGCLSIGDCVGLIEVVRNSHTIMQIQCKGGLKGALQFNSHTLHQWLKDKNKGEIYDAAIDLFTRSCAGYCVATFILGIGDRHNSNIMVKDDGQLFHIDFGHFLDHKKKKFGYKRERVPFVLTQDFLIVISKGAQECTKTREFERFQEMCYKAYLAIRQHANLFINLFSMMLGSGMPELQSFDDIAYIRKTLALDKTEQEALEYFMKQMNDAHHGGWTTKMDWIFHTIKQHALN
T1 sequence (P27986 whole entry partner): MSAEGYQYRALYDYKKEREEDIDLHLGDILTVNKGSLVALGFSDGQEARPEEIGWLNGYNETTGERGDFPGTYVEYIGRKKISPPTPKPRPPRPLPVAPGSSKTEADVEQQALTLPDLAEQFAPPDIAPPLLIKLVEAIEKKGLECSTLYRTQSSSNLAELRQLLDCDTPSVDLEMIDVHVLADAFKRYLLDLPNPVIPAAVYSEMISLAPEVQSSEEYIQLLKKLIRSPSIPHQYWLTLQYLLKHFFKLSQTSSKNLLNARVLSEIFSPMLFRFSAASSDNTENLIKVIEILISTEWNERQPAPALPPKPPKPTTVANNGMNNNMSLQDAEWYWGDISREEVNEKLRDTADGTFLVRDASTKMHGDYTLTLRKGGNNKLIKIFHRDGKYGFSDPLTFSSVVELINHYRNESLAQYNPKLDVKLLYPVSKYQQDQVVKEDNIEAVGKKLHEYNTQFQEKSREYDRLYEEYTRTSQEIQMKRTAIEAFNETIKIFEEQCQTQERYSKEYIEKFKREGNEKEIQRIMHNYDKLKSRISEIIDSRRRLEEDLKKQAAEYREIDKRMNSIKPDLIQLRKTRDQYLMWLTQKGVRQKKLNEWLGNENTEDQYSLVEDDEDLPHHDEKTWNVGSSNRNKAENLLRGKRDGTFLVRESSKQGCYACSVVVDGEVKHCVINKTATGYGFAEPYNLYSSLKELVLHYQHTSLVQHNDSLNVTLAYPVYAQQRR
Outline: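 Recombinant full-length human GST-p110α/His-p85α, co-expressed in Sf9 cells, was incubated 30 min at room temperature with 20 μM PIP2 and 10 μM ATP. The buffer was 50 mM HEPES pH 7.4, 150 mM NaCl, 5 mM MgCl2, 1 mM DTT, 3 µM orthovanadate and 0.5% DMSO. ADP formed was detected by ADP-Glo luminescence.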

[3] = target: T2, mTor serine/threonine protein kinase (Homo sapiens, UniProt P42345); assay: mTor kinase radioisotope assay; assay type: biochemical; details: 70 uM ATP, 40 minutes; read-out: m-TOR IC50
T2 construct: FLAG; made in house; host or cells: Baculovirus expression system in Sf21 cells
Outline: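 FLAG-tagged full-length recombinant human mTor from baculovirus/Sf21, incubated with p70S6K C-terminal fragment (2 mg/ml) and 70 uM ATP plus 33P-ATP tracer in 50 mM HEPES pH 7.5, 3 mM MnCl2, 40 min at room temperature. Phosphoric acid stop, filtermat capture, scintillation counting; IC50 from sigmoidal dose-response fit.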

[4] = tested on: CFPAC-1; assay: Cell proliferation assay (CellTiter-Glo); assay type: cell-based; details: Homo sapiens, Pancreas, 72 hours, 0.5% fetal bovine serum, read-out: antiproliferative activity IC50, CFPAC-1
Experimental: (§1) Cell Proliferation Assay:
(§2) Cancer cell lines were plated at 5,000 to 10,000 per well in 96-well flat bottomed plates with various concentration of compounds. The cells were incubated with compounds for 72 hours in the presence of 0.5% of fetal bovine serum. Growth inhibition was accessed by adenosine triphosphate (ATP) content assay using Promega CellTiter-Glo kit. Promega CellTiter-Glo kit is an ATP monitoring system based on firefly luciferase. Briefly, 16 μl of mammalian cell lysis and substrate solution was added to 84 μl of culture medium per well to lyse the cells and stabilize the ATP. The mixture was shaken and incubated for 30 minutes and subsequently the luminescence was measured.

[5] = tested on: CaPan2; assay: Cell proliferation assay (CellTiter-Glo); assay type: cell-based; details: Homo sapiens, Capan-2; Pancreas; 72 hours, 0.5% fetal bovine serum; read-out: antiproliferative activity IC50, CaPan2
Experimental: as §1, §2

[6] = tested on: Calu6; assay: Cell proliferation assay (CellTiter-Glo); assay type: cell-based; details: Homo sapiens, Calu-6; NSCLC; 72 hours, 0.5% fetal bovine serum; read-out: antiproliferative activity IC50, Calu6
Experimental: as §1, §2

[7] = tested on: MDA-MB-231; assay: Cell proliferation assay (CellTiter-Glo); assay type: cell-based; details: Homo sapiens, Breast, 72 hours, 0.5% fetal bovine serum, read-out: antiproliferative activity IC50, MDA-MB-231
Experimental: as §1, §2

[8] = tested on: MiaPaca1; assay: Cell proliferation assay (CellTiter-Glo); assay type: cell-based; details: Pancreas; 72 hours, 0.5% fetal bovine serum; read-out: antiproliferative activity IC50, MiaPaca1
Experimental: as §1, §2

[9] = tested on: PANC-1; assay: Cell proliferation assay (CellTiter-Glo); assay type: cell-based; details: Homo sapiens, Pancreas, 72 hours, 0.5% fetal bovine serum, read-out: antiproliferative activity IC50, PANC-1
Experimental: as §1, §2

[10] = tested on: SW1990; assay: Cell proliferation assay (CellTiter-Glo); assay type: cell-based; details: Homo sapiens, Pancreas, 72 hours, 0.5% fetal bovine serum, read-out: antiproliferative activity IC50, SW1990
Experimental: as §1, §2

[11] = tested on: WiDr; assay: Cell proliferation assay (CellTiter-Glo); assay type: cell-based; details: Homo sapiens, Colon, 72 hours, 0.5% fetal bovine serum, read-out: antiproliferative activity IC50, WiDr
Experimental: as §1, §2

[12] = tested on: A549; assay: Cell proliferation assay (CellTiter-Glo); assay type: cell-based; details: Homo sapiens, NSCLC, 72 hours, 0.5% fetal bovine serum, read-out: antiproliferative activity IC50, A549
Experimental: as §1, §2

[13] = tested on: H2122; assay: Cell proliferation assay (CellTiter-Glo); assay type: cell-based; details: Homo sapiens, NCI-H2122; NSCLC; 72 hours, 0.5% fetal bovine serum; read-out: antiproliferative activity IC50, H2122
Experimental: as §1, §2

[14] = tested on: H292; assay: Cell proliferation assay (CellTiter-Glo); assay type: cell-based; details: Homo sapiens, NCI-H292; NSCLC; 72 hours, 0.5% fetal bovine serum; read-out: antiproliferative activity IC50, H292
Experimental: as §1, §2

[15] = tested on: H358; assay: Cell proliferation assay (CellTiter-Glo); assay type: cell-based; details: Homo sapiens, NCI-H358; NSCLC; 72 hours, 0.5% fetal bovine serum; read-out: antiproliferative activity IC50, H358
Experimental: as §1, §2

[16] = tested on: H460; assay: Cell proliferation assay (CellTiter-Glo); assay type: cell-based; details: Homo sapiens, NCI-H460; NSCLC; 72 hours, 0.5% fetal bovine serum; read-out: antiproliferative activity IC50, H460
Experimental: as §1, §2

[17] = tested on: HCT116; assay: Cell proliferation assay (CellTiter-Glo); assay type: cell-based; details: Homo sapiens, HCT-116; Colon; 72 hours, 0.5% fetal bovine serum; read-out: antiproliferative activity IC50, HCT116
Experimental: as §1, §2

[18] = tested on: OPM-2; assay: Cell proliferation assay (CellTiter-Glo); assay type: cell-based; details: Homo sapiens, Multiple Myeloma, 72 hours, 0.5% fetal bovine serum, read-out: antiproliferative activity IC50, OPM-2
Experimental: as §1, §2

SMILES	IC50 [1] [nM]	IC50 [2] [nM]	IC50 [3] [nM]	IC50 [4] [nM]	IC50 [5] [nM]	IC50 [6] [nM]	IC50 [7] [nM]	IC50 [8] [nM]	IC50 [9] [nM]	IC50 [10] [nM]	IC50 [11] [nM]	melting point [°C]	IC50 [12] [nM]	IC50 [13] [nM]	IC50 [14] [nM]	IC50 [15] [nM]	IC50 [16] [nM]	IC50 [17] [nM]	IC50 [18] [nM]
CNc1ncc(-c2nc(N3CCOCC3)c3sc(CN(C)c4ncc(C(=O)NO)cn4)cc3n2)cn1 [Compound 116, N-hydroxy-2-(methyl((2-(2-(methylamino)pyrimidin-5-yl)-4-morpholinothieno[3,2-d]pyrimidin-6-yl)methyl)amino)pyrimidine-5-carboxamide]	< 100	< 100	< 100	100 to 1000	10 to 100	10 to 100	10 to 100	10 to 100	10 to 100	10 to 100	10 to 100	183 to 187	–	–	–	–	–	–	–
CN(Cc1cc2nc(-c3cccc(OCCO)c3)nc(N3CCOCC3)c2s1)c1ncc(C(=O)NO)cn1 [Compound 289, 2-({2-[3-(2-Hydroxy-ethoxy)-phenyl]-4-morpholin-4-yl-thieno[3,2-d]pyrimidin-6-ylmethyl}-methyl-amino)-pyrimidine-5-carboxylic acid hydroxyamide]	< 100	< 100	–	–	–	–	–	< 10	–	–	< 10	148 to 152	10 to 100	< 10	< 10	< 10	10 to 100	< 10	–
CC(O)c1cccc(-c2nc(N3CCOCC3)c3sc(CN(C)c4ncc(C(=O)NO)cn4)cc3n2)c1 (centres unmarked) [Compound 294, N-Hydroxy-2-(((2-(3-(1-hydroxyethyl)phenyl)-4-morpholinothieno[3,2-d]pyrimidin-6-yl)methyl)(methyl)amino)pyrimidine-5-carboxamide]	< 100	< 100	100 to 1000	–	–	–	–	< 10	–	–	10 to 100	–	10 to 100	< 10	10 to 100	< 10	10 to 100	< 10	–
CN(Cc1cc2nc(-c3ccc(N)cc3Cl)nc(N3CCOCC3)c2s1)c1ncc(C(=O)NO)cn1 [Compound 284, 2-(((2-(4-Amino-2-chlorophenyl)-4-morpholinothieno[3,2-d]pyrimidin-6-yl)methyl)(methyl)amino)-N-hydroxypyrimidine-5-carboxamide]	< 100	< 100	–	–	–	–	–	10 to 100	–	–	10 to 100	179 to 183	10 to 100	< 10	–	< 10	10 to 100	< 10	–
CN(Cc1cc2nc(-c3ccc(N)nc3)nc(N3CCOCC3)c2s1)c1ncc(C(=O)NO)cn1 [Compound 110, 2-(((2-(6-aminopyridin-3-yl)-4-morpholinothieno[3,2-d]pyrimidin-6-yl)methyl)(methyl)amino)-N-hydroxypyrimidine-5-carboxamide]	< 100	< 100	< 100	–	–	10 to 100	–	–	–	–	10 to 100	175 to 181	–	–	–	–	–	–	< 10
C[C@H](O)c1cccc(-c2nc(N3CCOCC3)c3sc(CN(C)c4ncc(C(=O)NO)cn4)cc3n2)c1 [Compound 296, (S)—N-Hydroxy-2-(((2-(3-(1-hydroxyethyl)phenyl)-4-morpholinothieno[3,2-d]pyrimidin-6-yl)methyl)(methyl)amino)pyrimidine-5-carboxamide]	< 100	100 to 1000	> 10000	–	–	10 to 100	–	10 to 100	–	–	< 10	168 to 172	10 to 100	10 to 100	10 to 100	10 to 100	10 to 100	< 10	–
CN(Cc1cc2nc(-c3cc(O)ccc3F)nc(N3CCOCC3)c2s1)c1ncc(C(=O)NO)cn1 [Compound 292, 2-(((2-(2-Fluoro-5-hydroxyphenyl)-4-morpholinothieno[3,2-d]pyrimidin-6-yl)methyl)(methyl)amino)-N-hydroxypyrimidine-5-carboxamide]	< 100	< 100	< 100	–	–	–	–	10 to 100	–	–	10 to 100	250 to 255	100 to 1000	10 to 100	–	10 to 100	10 to 100	10 to 100	–
CNc1ccc(-c2nc(N3CCOCC3)c3sc(C(=O)NCC4CCN(c5ncc(C(=O)NO)cn5)CC4)cc3n2)cn1 [Compound 308, N-((1-(5-(Hydroxycarbamoyl)pyrimidin-2-yl)piperidin-4-yl)methyl)-2-(6-(methylamino)pyridin-3-yl)-4-morpholinothieno[3,2-d]pyrimidine-6-carboxamide]	< 100	< 100	–	–	–	–	–	100 to 1000	–	–	100 to 1000	215 to 218	100 to 1000	100 to 1000	100 to 1000	100 to 1000	100 to 1000	100 to 1000	–
